According to ChEMBL document CHEMBL1201862, “PubChem BioAssay data set” (2004):
Active and inactive are the calls of the source.

Legend:
Cytochrome P450 2C9 = Cytochrome P450 2C9 (Homo sapiens, UniProt P11712)
[1] = biological target: T1, Microphthalmia-associated transcription factor (Homo sapiens, UniProt O75030); assay: TRPM1 promoter luciferase signal decrease, dose response, MITF inhibitor project, cell-based, SK-MEL-5, cherry-picked, set 3 (AID 493073); type: functional
T1 sequence (O75030 whole entry): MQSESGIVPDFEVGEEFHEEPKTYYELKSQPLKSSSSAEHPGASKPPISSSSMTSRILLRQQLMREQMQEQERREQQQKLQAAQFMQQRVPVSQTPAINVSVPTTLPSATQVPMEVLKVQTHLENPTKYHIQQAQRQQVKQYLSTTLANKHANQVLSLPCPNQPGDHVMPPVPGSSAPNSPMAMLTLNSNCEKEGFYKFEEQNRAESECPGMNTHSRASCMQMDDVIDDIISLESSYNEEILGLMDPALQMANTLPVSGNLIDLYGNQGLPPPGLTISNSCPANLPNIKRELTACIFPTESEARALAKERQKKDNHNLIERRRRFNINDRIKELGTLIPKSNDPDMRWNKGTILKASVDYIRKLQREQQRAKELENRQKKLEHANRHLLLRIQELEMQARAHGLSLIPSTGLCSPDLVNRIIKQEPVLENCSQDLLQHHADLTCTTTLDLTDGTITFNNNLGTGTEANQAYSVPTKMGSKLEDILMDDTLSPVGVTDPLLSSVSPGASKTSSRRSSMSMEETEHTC

[2] = Luminescent dose response cell-based high throughput screening assay for inhibitors of the Janus kinase 2 mutant JAK2V617F. [Related pubchem assays: 1446 (Primary screen.), 1521 (Confirmation assay.), 1486 (Counter screen.)]; type: functional
[3] = biological target: Neurotensin receptor type 1 (Homo sapiens, UniProt P30989); type: functional;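 note: Image-based confirmatory dose-response assay measuring agonist activity at NTR1; NTR1-expressing U2OS osteosarcoma cells imaged for beta-arrestin GFP spot formation; agonist potency where compounds increase beta-arrestin recruitment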
Neurotensin receptor type 1, sequence (P30989 whole entry): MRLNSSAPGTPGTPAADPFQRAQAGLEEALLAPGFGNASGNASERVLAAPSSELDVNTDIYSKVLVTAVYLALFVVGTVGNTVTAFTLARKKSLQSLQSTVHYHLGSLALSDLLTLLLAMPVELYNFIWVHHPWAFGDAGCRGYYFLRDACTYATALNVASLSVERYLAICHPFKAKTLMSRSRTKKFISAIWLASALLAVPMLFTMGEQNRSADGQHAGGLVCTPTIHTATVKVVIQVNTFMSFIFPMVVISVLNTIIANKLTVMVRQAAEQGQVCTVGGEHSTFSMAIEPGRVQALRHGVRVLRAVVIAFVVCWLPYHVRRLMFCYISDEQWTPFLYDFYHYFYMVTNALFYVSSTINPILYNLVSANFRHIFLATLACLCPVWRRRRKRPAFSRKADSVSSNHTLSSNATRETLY

[4] = THP-1 cell cytotoxicity, dose response, cytotoxicity control for non-replicating M. tuberculosis project (AID 489025); type: functional
[5] = Luminescence Cell-Based Dose Retest to Confirm Inhibitors of Cancer Stem Cells. [Related pubchem assays (depositor defined):AID2717, AID2721]; type: functional, Homo sapiens; conditions: Homo sapiens
BJ [6] = assay: cells; type: functional, cell-based; conditions: Homo sapiens
BJ [7] = assay: cytotoxicity toward BJ-TERT fibroblasts, dose response, cell-based, RAS-independent, luminescence (AID 1933); type: functional; conditions: Homo sapiens
BJ [8] = assay: cytotoxicity toward BJ-TERT-LT-ST fibroblasts, dose response, cell-based, RAS-independent, luminescence (AID 1935); type: functional; conditions: Homo sapiens;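 note: BJ fibroblasts immortalized with TERT plus LT and ST oncogenes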
[9] = cytotoxicity toward DRD oncogenic fibroblasts, dose response, cell-based, non-viral oncogenic, luminescence (AID 1934); type: functional; conditions: Homo sapiens
cells = type: functional
[10] = Vero E6 cell cytotoxicity, dose response, cytotoxicity control for non-replicating M. tuberculosis project, secondary assay (AID 492998); type: functional, VeroE6; conditions: Vero C1008
[11] = Cytotoxicity screening for potential Inhibitors of Bacterial Capsule Biogenesis. [Related pubchem assays (depositor defined):AID488970]; type: functional
Protein skinhead-1 = biological target: T2, Protein skinhead-1 (Caenorhabditis elegans, UniProt P34707); type: functional
T2 sequence (P34707 whole entry): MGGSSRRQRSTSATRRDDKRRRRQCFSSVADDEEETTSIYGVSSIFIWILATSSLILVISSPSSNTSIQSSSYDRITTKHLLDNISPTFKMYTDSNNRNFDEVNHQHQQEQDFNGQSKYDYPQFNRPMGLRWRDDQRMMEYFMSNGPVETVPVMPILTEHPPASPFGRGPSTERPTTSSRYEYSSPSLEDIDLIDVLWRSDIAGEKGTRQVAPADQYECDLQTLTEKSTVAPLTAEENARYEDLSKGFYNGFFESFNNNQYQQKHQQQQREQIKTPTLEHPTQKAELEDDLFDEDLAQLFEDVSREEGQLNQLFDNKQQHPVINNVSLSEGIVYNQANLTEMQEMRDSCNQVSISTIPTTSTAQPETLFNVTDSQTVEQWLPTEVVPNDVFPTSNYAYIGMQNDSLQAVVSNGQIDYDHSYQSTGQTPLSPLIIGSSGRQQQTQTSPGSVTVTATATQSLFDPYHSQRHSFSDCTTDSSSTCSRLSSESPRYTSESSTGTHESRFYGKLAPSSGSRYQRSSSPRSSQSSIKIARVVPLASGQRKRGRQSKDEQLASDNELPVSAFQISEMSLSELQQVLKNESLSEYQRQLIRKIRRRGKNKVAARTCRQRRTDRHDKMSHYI

[12] = cytotoxicity in HPDE-C7 cells, cell-based, fluorescence, HTS (AID 430); type: functional; conditions: Homo sapiens
HEK293 [13] = assay: cells; type: functional, cell-based; conditions: Homo sapiens
[14] = A549 cell cytotoxicity, dose response, cytotoxicity control, plate reader, cherry-pick, antagonist series (AID 743412); type: functional, cell-based
HEK293 [15] = assay: cells; conditions: Homo sapiens
Tumor necrosis factor = Tumor necrosis factor (Homo sapiens, UniProt P01375); assay: TNFa-triggered NF-kB activation inhibitors, SAR follow-up, cell-based, revised (AID 2337); type: functional
Tumor necrosis factor, sequence (P01375 whole entry): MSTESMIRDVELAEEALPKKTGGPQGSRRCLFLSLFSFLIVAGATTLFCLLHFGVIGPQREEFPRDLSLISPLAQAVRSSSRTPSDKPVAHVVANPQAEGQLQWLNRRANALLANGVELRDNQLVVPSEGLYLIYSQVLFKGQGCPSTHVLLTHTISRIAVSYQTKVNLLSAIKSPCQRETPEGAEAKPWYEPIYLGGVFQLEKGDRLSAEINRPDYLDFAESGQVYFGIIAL

[16] = LGR2 antagonists, dose response, cell-based, HEK293, CRE-luciferase reporter, cherry pick, set 2 (AID 743343); type: functional;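 note: transfected cells were stimulated with diluted bursicon conditioned medium after compound addition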
[17] = growth suppression of PTEN-null colon cells, dose response, cell-based, HCT116 PTEN knockout (AID 1047); type: functional;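 note: HCT116 colon tumor cells with PTEN knocked out; cells exposed to compound for 60 hours before readout; potency for loss of cell viability measured by luminescence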
[18] = biological target: Nucleotide-binding oligomerization domain-containing protein 2 (Homo sapiens, UniProt Q9HC29); assay: PubChem AID 2334; type: functional
Nucleotide-binding oligomerization domain-containing protein 2, sequence (Q9HC29 whole entry, the tested form may be a part): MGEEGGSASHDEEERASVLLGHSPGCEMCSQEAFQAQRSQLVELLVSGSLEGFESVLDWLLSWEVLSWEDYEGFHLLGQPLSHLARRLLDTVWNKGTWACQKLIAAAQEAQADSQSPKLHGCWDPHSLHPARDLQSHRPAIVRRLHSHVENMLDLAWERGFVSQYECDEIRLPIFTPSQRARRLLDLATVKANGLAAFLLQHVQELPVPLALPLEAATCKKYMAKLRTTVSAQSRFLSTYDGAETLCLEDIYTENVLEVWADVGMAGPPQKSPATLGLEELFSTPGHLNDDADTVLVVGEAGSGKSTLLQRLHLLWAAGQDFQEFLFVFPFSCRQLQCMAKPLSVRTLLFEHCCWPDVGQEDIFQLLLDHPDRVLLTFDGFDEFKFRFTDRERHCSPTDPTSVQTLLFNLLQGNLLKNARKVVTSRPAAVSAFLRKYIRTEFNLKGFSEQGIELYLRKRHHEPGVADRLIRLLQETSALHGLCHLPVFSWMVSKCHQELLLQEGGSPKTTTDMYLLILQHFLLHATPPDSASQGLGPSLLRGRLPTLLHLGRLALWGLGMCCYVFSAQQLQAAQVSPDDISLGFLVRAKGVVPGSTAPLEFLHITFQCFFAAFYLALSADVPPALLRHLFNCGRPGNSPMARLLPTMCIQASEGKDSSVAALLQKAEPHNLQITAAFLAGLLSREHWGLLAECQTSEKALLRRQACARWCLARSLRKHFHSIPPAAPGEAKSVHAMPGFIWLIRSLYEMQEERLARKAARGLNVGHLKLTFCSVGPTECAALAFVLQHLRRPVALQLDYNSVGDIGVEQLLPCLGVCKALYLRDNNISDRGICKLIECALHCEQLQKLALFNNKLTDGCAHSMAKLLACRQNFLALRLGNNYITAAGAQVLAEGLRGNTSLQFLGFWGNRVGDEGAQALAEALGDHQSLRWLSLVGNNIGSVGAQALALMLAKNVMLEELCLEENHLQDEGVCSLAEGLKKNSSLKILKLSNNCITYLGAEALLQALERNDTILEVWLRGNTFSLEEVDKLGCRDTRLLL

[19] = growth suppression of beta-catenin-knockout colon cells, dose response, cell-based, HCT116, human colon tumor (AID 1045); type: functional;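 note: HCT116 colon tumor cells with beta catenin knocked out; cells exposed to compound for 60 hours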
HEK293 [20] = assay: NOD2 signaling inhibitors in MDP-stimulated cells, cell-based, uHTS, luminescence (AID 2001); type: functional; conditions: Homo sapiens
[21] = MC4R antagonists, dose response, counter-screen for LGR2 antagonist project, cell-based, plate reader, cherry pick (AID 743444); type: functional;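 note: transfected HEK 293 cells stimulated with alpha-MSH peptide; potency of inhibitors of the alpha-MSH evoked signal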
HEK293 [22] = assay: cells; type: functional, cell-based; conditions: Homo sapiens; remark: listed apart in the source
HEK293 [23] = assay: NOD1 signaling inhibitors, primary screen, cell-based, luminescence, uHTS (AID 1578); type: functional; conditions: Homo sapiens
[24] = biological target: T3, Nucleotide-binding oligomerization domain-containing protein 1 (Homo sapiens, UniProt Q9Y239); assay: NOD1 signaling inhibitors, SAR follow-up, revised (AID 2333); type: functional
T3 sequence (Q9Y239 whole entry): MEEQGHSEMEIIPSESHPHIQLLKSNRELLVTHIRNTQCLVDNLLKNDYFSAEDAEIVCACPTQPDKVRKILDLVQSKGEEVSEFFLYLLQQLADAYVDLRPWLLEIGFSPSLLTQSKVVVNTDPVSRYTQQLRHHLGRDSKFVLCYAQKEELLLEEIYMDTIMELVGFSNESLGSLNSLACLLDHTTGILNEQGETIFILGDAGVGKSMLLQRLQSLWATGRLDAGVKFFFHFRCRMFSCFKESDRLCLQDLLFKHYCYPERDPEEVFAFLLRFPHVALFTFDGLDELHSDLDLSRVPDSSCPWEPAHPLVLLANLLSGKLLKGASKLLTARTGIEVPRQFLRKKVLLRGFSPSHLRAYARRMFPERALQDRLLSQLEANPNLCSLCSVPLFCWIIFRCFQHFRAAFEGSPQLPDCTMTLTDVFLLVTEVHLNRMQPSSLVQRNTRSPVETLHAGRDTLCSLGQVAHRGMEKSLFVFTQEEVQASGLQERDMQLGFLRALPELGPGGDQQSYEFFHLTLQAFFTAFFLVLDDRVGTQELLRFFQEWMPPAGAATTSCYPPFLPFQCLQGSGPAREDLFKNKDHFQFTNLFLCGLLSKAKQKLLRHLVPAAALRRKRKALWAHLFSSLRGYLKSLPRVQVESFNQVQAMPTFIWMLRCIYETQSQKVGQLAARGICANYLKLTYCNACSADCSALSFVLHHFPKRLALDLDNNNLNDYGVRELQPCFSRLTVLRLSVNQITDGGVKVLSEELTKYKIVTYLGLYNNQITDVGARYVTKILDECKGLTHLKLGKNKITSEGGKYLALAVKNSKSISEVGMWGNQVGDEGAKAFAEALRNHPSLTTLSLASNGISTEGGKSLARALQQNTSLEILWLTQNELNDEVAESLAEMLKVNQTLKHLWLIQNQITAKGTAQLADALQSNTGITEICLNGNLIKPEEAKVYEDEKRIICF

[25] = cytotoxicity in KRAS-transformed pancreatic duct cells, primary screen, cell-based, fluorescence, HTS (AID 431); type: functional; conditions: Homo sapiens;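 note: cell line used: HPDE-C7K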
[26] = biological target: T4, Ubiquitin-conjugating enzyme E2 N (Homo sapiens, UniProt P61088); type: functional
T4 sequence (P61088 whole entry): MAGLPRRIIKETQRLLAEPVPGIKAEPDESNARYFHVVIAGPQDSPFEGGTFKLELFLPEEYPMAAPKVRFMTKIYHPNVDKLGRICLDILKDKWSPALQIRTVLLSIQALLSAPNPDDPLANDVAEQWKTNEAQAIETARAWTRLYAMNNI

[27] = biological target: T4, Ubiquitin-conjugating enzyme E2 N; type: functional; remark: listed apart in the source
Paired box protein Pax-8 = Paired box protein Pax-8 (Homo sapiens, UniProt Q06710); assay: inhibitors of PAX8-driven TPO luciferase reporter, dose response, RMG-I cells, cherry-pick (AID 687027); type: functional, cell-based;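 note: luciferase reporter driven by Pax8 target thyroperoxidase promoter measured by SteadyGlo luminescence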
Paired box protein Pax-8, sequence (Q06710 whole entry): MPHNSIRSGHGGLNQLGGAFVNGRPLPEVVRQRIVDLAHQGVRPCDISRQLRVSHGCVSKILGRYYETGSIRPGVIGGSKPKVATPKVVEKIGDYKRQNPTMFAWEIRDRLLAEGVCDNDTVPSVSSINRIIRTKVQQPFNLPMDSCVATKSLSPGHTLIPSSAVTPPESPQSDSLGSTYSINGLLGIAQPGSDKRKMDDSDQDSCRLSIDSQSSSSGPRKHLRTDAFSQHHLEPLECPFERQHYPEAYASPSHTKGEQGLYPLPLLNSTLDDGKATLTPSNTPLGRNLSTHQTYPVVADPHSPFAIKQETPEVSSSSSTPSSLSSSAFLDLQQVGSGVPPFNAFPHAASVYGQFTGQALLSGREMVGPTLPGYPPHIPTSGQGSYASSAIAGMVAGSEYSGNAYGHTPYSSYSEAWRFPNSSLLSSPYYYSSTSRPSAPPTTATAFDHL

Bcl-2-related protein A1 = biological target: T5, Bcl-2-related protein A1 (Mus musculus, UniProt Q07440); type: functional;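 note: confirmatory dose–response counterscreen on Bfl-1, used to check hits from a UBC13 polyubiquitin inhibitor campaign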
T5 sequence (Q07440 whole entry): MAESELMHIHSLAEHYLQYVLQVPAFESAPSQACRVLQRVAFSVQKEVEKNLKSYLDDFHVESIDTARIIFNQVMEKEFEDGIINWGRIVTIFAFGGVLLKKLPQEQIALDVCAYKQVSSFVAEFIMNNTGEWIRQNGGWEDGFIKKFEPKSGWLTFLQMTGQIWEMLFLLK

Cytochrome P450 2C9, sequence (P11712 whole entry): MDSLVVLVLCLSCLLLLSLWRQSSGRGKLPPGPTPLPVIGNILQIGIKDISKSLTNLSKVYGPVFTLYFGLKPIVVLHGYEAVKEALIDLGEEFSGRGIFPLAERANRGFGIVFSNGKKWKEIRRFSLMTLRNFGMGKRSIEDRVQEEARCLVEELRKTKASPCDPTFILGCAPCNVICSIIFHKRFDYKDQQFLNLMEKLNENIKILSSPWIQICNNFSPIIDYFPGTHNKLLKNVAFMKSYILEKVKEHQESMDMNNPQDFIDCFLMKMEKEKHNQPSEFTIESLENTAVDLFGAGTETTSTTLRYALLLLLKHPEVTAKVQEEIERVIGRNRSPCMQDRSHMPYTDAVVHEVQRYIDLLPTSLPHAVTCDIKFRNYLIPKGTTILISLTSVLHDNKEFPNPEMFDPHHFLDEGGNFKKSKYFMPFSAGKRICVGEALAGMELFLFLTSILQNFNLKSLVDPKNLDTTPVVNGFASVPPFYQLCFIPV

C/C(=C\c1ccc(N(C)C)cc1)[N+](=O)[O-]
AC50 (Cytochrome P450 2C9): 31.6 µM (inconclusive)
AC50 [1]: 13.1 µM (active)
IC50 [2]: 0.653 µM (active)
EC50 [3]: 4.26 µM (active)

O=C1NC(=O)N(CCc2ccc(F)cc2)C(=O)/C1=C/C=C/c1ccccc1
CC50 [4]: 5.09 µM (active)
AC50 [5]: 1.05 µM (active)
EC50 (BJ [6]): > 150 µM (not active)
EC50 (BJ [7]): 5.32 µM (inconclusive)
EC50 (BJ [8]): 11.6 µM (inconclusive)
EC50 [3]: 39.3 µM (inactive)
EC50 [9]: 5.39 µM (inconclusive)
IC50 (cells): 48.4 µM (active)
CC50 [10]: 16.8 µM (active)

COc1ccc2nc(NC(=O)c3ccc(Br)s3)sc2c1
CC50 [11]: > 100 µM (active)
IC50 (Protein skinhead-1): > 100 µM (inactive)

CCCc1nc(SCC(=O)N2CCC(Cc3ccccc3)CC2)c2c(=O)n(C)c(=O)n(C)c2n1
EC50 [12]: 6.8 µM (active)
IC50 (HEK293 [13]): > 20 µM (inactive)
AC50 [14]: > 52 µM (inactive)
IC50 (HEK293 [15]): 19.3 µM (active)
IC50 (Tumor necrosis factor): 11 µM (active)
AC50 [16]: 18.6 µM (active)
EC50 [17]: 33.6 µM (active)
IC50 [18]: 11.4 µM (active)
EC50 [19]: 33.7 µM (active)
IC50 (HEK293 [20]): 5.22 µM (active)
AC50 [21]: 17.9 µM (active)
IC50 (HEK293 [22]): 8.67 µM (active)
EC50 (HEK293 [23]): 5.46 µM (active)
IC50 [24]: 12.2 µM (active)
EC50 [25]: 6.62 µM (active)

COC(=O)c1c(NC(=O)C(=O)N2CCCCC2)sc2c1CC(C)(C)OC2
IC50 (HEK293 [15]): > 20 µM (inactive)
IC50 (Tumor necrosis factor): > 20 µM (inactive)
IC50 [18]: > 20 µM (inactive)
IC50 [24]: > 20 µM (inactive)

O=C(Nc1cccc(C2=NCCN2)c1)Nc1cccc(C2=NCCN2)c1 [IMIDOCARB DIPROPIONATE]
IC50 [26]: 13.2 µM (active)
CC50 [11]: > 100 µM (active)
IC50 [27]: 10.6 µM (active)
AC50 (Paired box protein Pax-8): 0.879 µM (active)
IC50 (Bcl-2-related protein A1): > 20 µM (inactive)
